Data from paper PMC8400955 (Pharmaceuticals, 2021).
Values joined by “and” are separate entries in the source; they are usually repeats but may differ in a detail not shown here. Equal values may be shown once.

Assays:
[1] = Plasma protein binding by equilibrium dialysis, mouse; assay type: in vitro ADME; settings: plasma (EDTA-K2 as anticoagulant)
Method: (§1) The in vitro binding of ZB716 to plasma proteins was determined by equilibrium dialysis technique in mouse, rat, dog, monkey, and human plasma (EDTA-K2 as anticoagulant), over the concentration range of 0.1–10 μM. The free concentration of ZB716 was below the lower limit of quantitation at 0.1, 1, and 10 μM in human, monkey, dog, rat, and mouse plasma.
(§2) The equilibrium dialysis method was used to investigate the in vitro binding of ZB716 to human, monkey, dog, rat, and mouse plasma proteins. The dialysis phosphate buffer solution (100 mM, pH 7.4) and plasma samples containing 0.1, 1, and 10 μM of ZB716 were added to separate chambers of dialysis wells of the HTDialysis device. The dialysis plate was placed in an incubator at 37 °C with 5% CO2 at approximately 100 rpm for 6 h. After incubation, the seal was removed, and 50 μL each of post-dialysis samples was pipetted from both the buffer and plasma chambers into fresh 96-well plates. The samples were analyzed via UPLC–MS/MS. The bound fraction, unbound fraction, recovery (%), and remaining (%) were calculated by Equations (2)–(5):%Unbound = (Conc.buffer chamber/Conc.plasma chamber) × 100(2) %Bound = 100% − %Unbound (3) %Recovery = (Conc.buffer chamber + Conc.plasma chamber)/Conc.Total sample × 100 (4) %Remaining = Conc.6h/Conc.0h × 100 (5)

[2] = system: mouse plasma proteins; assay: as above; assay type: in vitro ADME; settings: for Remaining: 6 h
Method: as §1, §2

[3] = Plasma protein binding by equilibrium dialysis, human; assay type: in vitro ADME; settings: plasma (EDTA-K2 as anticoagulant)
Method: as §1, §2

[4] = system: human plasma proteins; assay: as above; assay type: in vitro ADME; settings: for Remaining: 6 h
Method: as §1, §2

[5] = system: CYP2B6; assay: CYP induction (enzyme activity) in cryopreserved human hepatocytes, CYP2B6; settings: for fold induction at 72 h, 0.15 µM / fold induction at 72 h, 1.5 µM / fold induction at 72 h, 5 µM / fold induction at 72 h, 15 µM: human, plated cryopreserved human hepatocytes
Method: The UPLC–MS/MS (SHIMADZU, LC-30AD) equipped with waters Xselect®HSS T3 2.5 μm (2.1 × 50 mm) was used to detect the marker metabolites in the enzyme activity assay. The fold-induction enzyme activity was determined using the ratio calculation (the calculation details are available in the Supplementary Materials).
CYP activity was expressed as pmol/min/million cells where pmol was defined as the amount of metabolite formed during the reaction. […] The fold-induction enzyme activity was determined by the ratio:
Fold of induction = CYP activity(induced) / CYP activity(vehicle)
% of positive control = (𝑪𝒀𝑷 𝒂𝒄𝒕𝒊𝒗𝒊𝒕𝒚(𝒊𝒏𝒅𝒖𝒄𝒆𝒅)ି 𝑪𝒀𝑷 𝒂𝒄𝒕𝒊𝒗𝒊𝒕𝒚(𝑫𝑴𝑺𝑶))(𝑪𝒀𝑷 𝒂𝒄𝒕𝒊𝒗𝒊𝒕𝒚(𝒑𝒐𝒔𝒊𝒕𝒊𝒗𝒆 𝒄𝒐𝒏𝒕𝒓𝒐𝒍)ି 𝑪𝒀𝑷 𝒂𝒄𝒕𝒊𝒗𝒊𝒕𝒚(𝑫𝑴𝑺𝑶))х 𝟏𝟎𝟎 Based on the enzyme activity, a minimum of 2-fold increase of a response compared to vehicle control and ≥ 20% of the positive control was considered as the cutoff for a positive signal in in vitro induction

[6] = molecular target: T1, CYP2B6 (Homo sapiens, UniProt P20813); assay: CYP phenotyping, recombinant CYP2B6
T1 sequence (P20813 1-491): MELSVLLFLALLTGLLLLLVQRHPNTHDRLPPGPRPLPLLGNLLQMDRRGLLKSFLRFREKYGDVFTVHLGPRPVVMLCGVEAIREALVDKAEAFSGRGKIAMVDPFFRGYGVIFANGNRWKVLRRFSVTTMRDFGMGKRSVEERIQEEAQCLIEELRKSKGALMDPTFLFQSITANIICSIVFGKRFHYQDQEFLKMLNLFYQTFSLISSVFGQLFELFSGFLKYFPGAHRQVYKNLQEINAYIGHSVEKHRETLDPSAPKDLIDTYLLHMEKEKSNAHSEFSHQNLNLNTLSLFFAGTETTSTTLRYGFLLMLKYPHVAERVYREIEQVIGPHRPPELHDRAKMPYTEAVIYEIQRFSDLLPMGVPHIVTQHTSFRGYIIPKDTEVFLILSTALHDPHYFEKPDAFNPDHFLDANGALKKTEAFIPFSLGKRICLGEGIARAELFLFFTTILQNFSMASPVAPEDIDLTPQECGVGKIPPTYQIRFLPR
Method: (§3) Bactosomes prepared from E. coli that heterologously expressed individual human CYP isoforms together with human CYP reductase were obtained from CYPEX LTD (Scotland, UK), and stored at −80 °C prior to use. […] Timepoints were taken at 0, 5, 10, 15, 20, and 30 min. Substrate disappearance was used to calculate intrinsic clearance (Clint) and half-life (t1/2). All incubations were performed in triplicate. […] The chemical inhibitors for CYP1A2, 2A6, 2B6, 2C8, 2C9, 2C19, 2D6, and 3A4 were furafylline, tranylcypromine, ticlopidine, montelukast, sulfaphenazole, N-3-benzylnirvanol, quinidine, and ketoconazole, respectively. Timepoints were collected at 0, 15, 30, 45, and 60 min, and the remaining percentage of the parent drug at each timepoint was calculated (the calculation details are available in the Supplementary Materials). All incubations were performed in triplicate.
(§4) 1.3.1 Intrinsic Clearance (Heterologously Expressed Human Cytochrome P450) All calculations were carried out using Microsoft Excel. The slope, k, was determined by linear regression of the natural logarithm of percent parent disappearance vs. incubation time curve. Peak areas for test article and internal standard were determined from extracted ion chromatograms. The peak area ratio was used to calculated for the results.
The half-life value (t1/2 rCYPi) was determined from the slope value: […]

[7] = molecular target: CYP2E1 (Homo sapiens, UniProt P05181); assay: CYP phenotyping, recombinant CYP2E1
Sequence of CYP2E1 (P05181 whole entry): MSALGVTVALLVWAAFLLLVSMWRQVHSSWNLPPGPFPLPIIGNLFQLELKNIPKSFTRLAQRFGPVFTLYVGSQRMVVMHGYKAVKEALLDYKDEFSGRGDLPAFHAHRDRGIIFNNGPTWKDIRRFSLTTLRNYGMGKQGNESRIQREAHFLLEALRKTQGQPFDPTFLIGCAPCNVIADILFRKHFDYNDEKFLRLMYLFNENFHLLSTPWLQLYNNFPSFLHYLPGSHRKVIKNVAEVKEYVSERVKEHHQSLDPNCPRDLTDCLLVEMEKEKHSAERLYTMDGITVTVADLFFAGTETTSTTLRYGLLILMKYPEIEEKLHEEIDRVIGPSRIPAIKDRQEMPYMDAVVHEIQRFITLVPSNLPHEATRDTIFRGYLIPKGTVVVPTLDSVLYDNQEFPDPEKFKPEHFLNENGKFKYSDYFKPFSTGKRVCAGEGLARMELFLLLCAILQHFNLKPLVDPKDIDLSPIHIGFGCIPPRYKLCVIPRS
Method: Bactosomes prepared from E. coli that heterologously expressed individual human CYP isoforms together with human CYP reductase were obtained from CYPEX LTD (Scotland, UK), and stored at −80 °C prior to use. […] Timepoints were taken at 0, 5, 10, 15, 20, and 30 min. Substrate disappearance was used to calculate intrinsic clearance (Clint) and half-life (t1/2). All incubations were performed in triplicate.
as §4
(§5) The half-life value (t1/2 rCYPi) was determined from the slope value:
(§6) Conversion of the t1/2 rCYPi (in min) into the intrinsic clearance (Clint rCYPi in μL/min/pmol) was done using the following equation:

[8] = molecular target: CYP3A5 (Homo sapiens, UniProt P20815); assay: CYP phenotyping, recombinant CYP3A5
Sequence of CYP3A5 (P20815 whole entry): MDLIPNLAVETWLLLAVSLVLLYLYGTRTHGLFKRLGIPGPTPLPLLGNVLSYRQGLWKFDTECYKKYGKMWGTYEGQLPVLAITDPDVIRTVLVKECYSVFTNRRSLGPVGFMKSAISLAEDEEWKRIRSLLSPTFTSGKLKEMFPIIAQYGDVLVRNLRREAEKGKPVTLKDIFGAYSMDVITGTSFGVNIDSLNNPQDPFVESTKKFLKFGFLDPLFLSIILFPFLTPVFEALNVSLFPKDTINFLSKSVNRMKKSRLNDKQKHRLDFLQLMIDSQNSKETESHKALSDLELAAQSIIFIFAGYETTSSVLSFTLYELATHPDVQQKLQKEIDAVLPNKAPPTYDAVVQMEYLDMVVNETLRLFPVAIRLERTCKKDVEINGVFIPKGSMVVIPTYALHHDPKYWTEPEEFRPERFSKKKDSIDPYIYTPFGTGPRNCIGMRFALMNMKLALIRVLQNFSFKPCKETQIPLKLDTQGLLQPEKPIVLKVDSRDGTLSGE
Method: as §3
The slope, k, was determined by linear regression of the natural logarithm of percent parent disappearance vs. incubation time curve. Peak areas for test article and internal standard were determined from extracted ion chromatograms. The peak area ratio was used to calculated for the results.
as §5, §6
1.3.2 For inhibition ratio (%) (Liver microsomes with and without inhibitors) The slope value, k, was determined by linear regression of the natural logarithm of the remaining percentage of the parent drug vs. incubation time curve. If the turnover was not significant (T-test with p<0.05 was not obtained) and the percentage remaining at last time point was ≥ 80%, the k value was

[9] = Plasma protein binding by equilibrium dialysis, rat; assay type: in vitro ADME; settings: plasma (EDTA-K2 as anticoagulant)
Method: as §1, §2

[10] = system: rat plasma proteins; assay: as above; assay type: in vitro ADME; settings: for Remaining: 6 h
Method: as §1, §2

## C[C@]12CC[C@@H]3c4ccc(B(O)O)cc4C[C@@H](CCCCCCCCC[S+]([O-])CCCC(F)(F)C(F)(F)F)[C@H]3[C@@H]1CC[C@@H]2O (stereo partly shown) [ZB716, fulvestrant-3-boronic acid]
[1]; pH 7.4, 0.1 μM
  recovery at 6 h, 0.1 μM: < 96%
[1]; pH 7.4, 1 μM
  recovery at 6 h, 1 μM: < 88.8%
[1]; pH 7.4, 10 μM
  recovery at 6 h, 10 μM: < 95%
[2]; 0.1 μM
  Bound: >97.4%
  Unbound: <2.63%
  Remaining: 98.5 ± 14.5%
[2]; 1 μM
  Bound: >99.7%
  Unbound: <0.266%
  Remaining: 92.2 ± 5.7%
[2]; 10 μM
  Bound: >99.97%
  Unbound: <0.0272%
  Remaining: 97.4 ± 10.7%
[3]; pH 7.4, 0.1 μM
  recovery at 6 h, 0.1 μM: < 69.1%
[3]; pH 7.4, 1 μM
  recovery at 6 h, 1 μM: < 64%
[3]; pH 7.4, 10 μM
  recovery at 6 h, 10 μM: < 74.7%
[4]; 0.1 μM
  Bound: >95.7%
  Unbound: <4.33%
  Remaining: 57.0 ± 7.7%
[4]; 1 μM
  Bound: >99.6%
  Unbound: <0.392%
  Remaining: 57.9 ± 4.9%
[4]; 10 μM
  Bound: >99.96%
  Remaining: 74.5 ± 3.4%
[5]; all three donors, 1.5–15 μM
  induction fold compared to the vehicle control: 2.98–6.40
  induction percentage of the positive control: 37.4–92.1%
[5]; donor one, 0.15 µM
  Percent of Control: 2.22%
  fold induction at 72 h, 0.15 µM: 1.1 ± 0.05
[5]; donor one, 1.5 µM
  Percent of Control: 17.2%
  fold induction at 72 h, 1.5 µM: 1.77 ± 0.13
[5]; donor one, 5 µM
  Percent of Control: 70.6%
  fold induction at 72 h, 5 µM: 4.14 ± 0.06
[5]; donor one, 15 µM
  Percent of Control: 73.0%
  fold induction at 72 h, 15 µM: 4.24 ± 0.47
[5]; donor three, 0.15 µM
  Percent of Control: 2.61%
  fold induction at 72 h, 0.15 µM: 1.14 ± 0.09
[5]; donor three, 1.5 µM
  Percent of Control: 39.2%
  fold induction at 72 h, 1.5 µM: 3.07 ± 0.36
[5]; donor three, 5 µM
  Percent of Control: 37.4%
  fold induction at 72 h, 5 µM: 2.98 ± 0.74
[5]; donor three, 15 µM
  Percent of Control: 4.18%
  fold induction at 72 h, 15 µM: 1.22 ± 0.42
[5]; donor two, 0.15 µM
  Percent of Control: 3.16%
  fold induction at 72 h, 0.15 µM: 1.19 ± 0.1
[5]; donor two, 1.5 µM
  Percent of Control: 19.8%
  fold induction at 72 h, 1.5 µM: 2.16 ± 0.07
[5]; donor two, 5 µM
  Percent of Control: 71.7%
  fold induction at 72 h, 5 µM: 5.21 ± 0.24
[5]; donor two, 15 µM
  Percent of Control: 92.1%
  fold induction at 72 h, 15 µM: 6.4 ± 0.16
[6]; human
  half-life at 2 µM: 41 ± 6.8 min
[6]; recombinant CYP2B6, 2 µM ZB716
  Clint: 0.343 ± 0.052 µL/min/pmol CYP
[7]; human
  half-life at 2 µM: 19.4 ± 1.2 min
[7]; recombinant CYP2E1, 2 µM ZB716
  Clint: 0.716 ± 0.044 µL/min/pmol CYP
[8]; human
  half-life at 2 µM: 2.06 ± 0.33 min
[8]; recombinant CYP3A5, 2 µM ZB716
  Clint: 6.86 µL/min/pmol CYP and 6.86 ± 1.12 µL/min/pmol CYP
[9]; pH 7.4, 0.1 μM
  recovery at 6 h, 0.1 μM: < 94.4%
[9]; pH 7.4, 1 μM
  recovery at 6 h, 1 μM: < 94.9%
[9]; pH 7.4, 10 μM
  recovery at 6 h, 10 μM: < 82.1%
[10]; 0.1 μM
  Bound: >97.7%
  Unbound: <2.35%
  Remaining: 83.9 ± 8.2%
[10]; 1 μM
  Bound: >99.8%
  Unbound: <0.216%
  Remaining: 91.1 ± 2.1%
[10]; 10 μM
  Bound: >99.97%
  Unbound: <0.0281%
  Remaining: 84.7 ± 2.0%
